The record followed here is patent US20070225245A1, “Viral vector driven mutant bacterial cytosine deaminase gene and uses thereof” (priority 1998, published 2007).

Values after ≈ are worked out from the molar mass of the structure shown.

Experiment [1] has as its system intracranial D54MG tumors. As to the kind of experiment: Intracranial survival study. Format: in vivo, athymic nude mice. As to conditions: for median survival time: FIG. 5. How it is done: D54MG human glioma cells (0.5×10^6 cells/mouse) were injected into the right frontal cortex of athymic nude mice (10 mice/group). Six days after tumor implantation (Day 0), a single dose of saline or 3.2×10^7 TCID50 AdCD-D314A was injected i.t. Mice then received 5 Gy fractions of radiation treatment on Days 1, 3, and 7 and 5-FC (500 mg/kg i.p. twice daily on Days 0-4, and 7-11) or saline and were subsequently monitored for survival.
D54MG human glioma cells (0.5×10^6 cells/mouse) were injected into the right frontal cortex of athymic nude mice (10 mice/group). Five days after tumor implantation, a single dose of PBS or 3.2×10^7 TCID50 AdbCD-D314A was injected i.t. on Day 5 Mice then received radiation treatment on Days 6, 9 and 13 at 2 or 5 Gy and 5-FC (500 mg/kg i.p. q2d×5/week for 3 weeks) and were subsequently monitored for survival.
D54MG tumors were established intracranially in athymic nude mice as described. Briefly, mice were anesthetized by i.p. administration of ketamine (20 mg/ml) and xylazine (0.3 mg/ml) in saline at 0.07 ml/10 g of body weight. A midline scalp incision was made, and a 0.5-mm burr hole was drilled 1.5-2.0 mm to the right of midline and 1 mm anterior to the coronal suture. D54MG cells were injected stereotactically at 0.5×10^6 cells (1×10^8/ml), using a 250 μl Hamilton syringe with a prepared 30 gauge needle mounted in a Stoelting stereotaxic apparatus. A plastic sleeve surrounding the needle allowed reproducible injections of tumor cells, saline or Ad to a depth of 2.5 mm. The needles were left in place for 2 min to minimize reflux of the tumor cells along the needle track. The scalp wounds were closed with Tissu-Mend glue to avoid scatter dose from metallic wound clips during radiation treatment. The mice were placed on a heating pad in sterile microisolator polycarbonate cages and allowed to awaken from anesthesia. Tumors were allowed to grow for 6 days before the start of treatment (Day 0). Animals were randomly divided into groups receiving different treatments: 3.2×10^7 TCID50 AdbCD-D314A in 10 μl saline; AdbCD-D314A in combination with radiation; AdbCD-D314A plus 5-FC; AdbCD-D314A plus 5-FC in combination with radiation, intratumoral saline followed by intraperitoneal 5-FU and intratumoral saline plus 5-FC and radiation. On the day after AdbCD-D314A injection, mice were treated i.p. with either saline or 5-FC twice daily at 500 mg/kg on Days 0 to 4, and 7 to 11 and monitored daily for survival. Radiation therapy consisted of 15 Gy ^60Co delivered in 5 Gy fractions to the whole brain, on Days 1, 3 and 7. Irradiated mice were immobilized in individual Lucite chambers with their heads positioned in an 8×32 cm collimated field. Animals were shielded with 3 cm of lead placed over the chamber, extending from behind the ears to the tail.

Experiment [2] deals with Intracranial U87MG Human Gliomas. Nature of the experiment: Survival, intracranial glioma, Ad, 5-FC and external beam radiation. Format: in vivo, athymic nude mice. How it is done:
This therapeutic effect of AdCMVCD/5-FC on glioma cells could be further enhanced with concurrent fractionated ionizing external beam radiation (Table 9). U87MG cells (5×10^5) were stereotactically injected into the right frontal cortex of athymic nude mice. Tumors were established for 5 days before intratumoral injection of AdCMVCD (10^9 pfu/mouse). Mice were then treated IP with 5-FC (500 mg/kg bid) on days 2-9 post infection, irradiated with local external beam 330 cGy ^60Co radiation on days 4 and 7 post-infection, and monitored for survival. Kaplan-Meier survival curves and median and 20% survival values were calculated by standard methods.

A further experiment deals with BXPC-3. As to the kind of experiment: 5-FU toxicity, MTS assay. The experiment is classed as cell-based. Conditions: Homo sapiens, 120 h, 5 days. How it is done: (§1) Tumor cells (5×10^4) were plated in 96 well plates and allowed to adhere overnight. Cells were then incubated continuously in the presence of increasing concentrations of 5-FU (0-200 μg/ml) and assayed for toxicity using an MTS assay (Promega, Madison Wis.) after 5-days. ICx values were calculated as previously described. U251MG glioma cells were as sensitive to 5-FU as LS174T and WiDR colon carcinoma cells, while D54MG, U87MG and U118MG glioma cells and AsPC-1 pancreatic carcinoma cells were 3-fold less sensitive (Table 2).

The test system of the next experiment is ASPC-1. Nature of the experiment: 5-FU toxicity, MTS assay. The experiment is classed as cell-based. As to conditions: Homo sapiens, ASPC1, 120 h, 5 days. As for the experimental part: as §1
On the technique in general: Tetrazolium dyes change colour on reduction, which living cells bring about.

For experiment [3], the system named is U87MG. Nature of the experiment: 5-FU toxicity, MTS assay. The experiment is classed as cell-based. As to conditions: Homo sapiens, U-87 MG, 120 h, 5 days. How it is done:
as §1

Experiment [4] relates to U251MG. Nature of the experiment: 5-FU toxicity, MTS assay. Format: cell-based. Conditions: Homo sapiens, U-251, 120 h, 5 days. How it is done: as §1
In the next experiment the test system is LS174T. As to the kind of experiment: 5-FU toxicity, MTS assay. Format: cell-based. Conditions: Homo sapiens, 120 h, 5 days. As for the experimental part: as §1
A further experiment relates to WiDr. Nature of the experiment: 5-FU toxicity, MTS assay. The experiment is classed as cell-based. As to conditions: Homo sapiens, 120 h, 5 days. How it is done:
as §1

The next experiment has as its system D54MG. Nature of the experiment: 5-FC or 5-FU toxicity (MTS) in Ad-infected cells. The experiment is classed as cell-based. As to conditions: Homo sapiens, Table 14, MOI 0. How it is done: (§2) Next, cytosine deaminase was administered to glioma cells via the replication deficient adenovirus. Glioma cells plated in T25 flasks were infected with AdCMVCD at several multiplicities of infection (MOI 0-300 pfu/cell) for 1 h at 37° C. At twenty-four hours post-infection, cells were harvested, replated at 5×10^3 cells/well in 96 well plates, and allowed to adhere overnight. […]
(§3) To test this hypothesis, 5-FC toxicity (IC50) was compared in cells infected with AdCMVCD versus AdCDUPRT. […] In Table 13 mean 5-FC IC50 was obtained from 2-5 separate experiments. Cells were infected with AdCMVCD or AdCDUPRT at the indicated MOI (pfu/cell) for 1 h at 37° C. 5-FC toxicity was determined by MTS assay 5 days after drug addition.

Experiment [5] has as its system U87MG. Nature of the experiment: 5-FC or 5-FU toxicity (MTS) in Ad-infected cells. Conditions: Homo sapiens, U-87 MG, Table 14, MOI 0. Format: cell-based. How it is done: as §2, §3
Experiment [6] concerns U251MG. Nature of the experiment: 5-FC or 5-FU toxicity (MTS) in Ad-infected cells. Format: cell-based. As to conditions: Homo sapiens, U-251, Table 14, MOI 0. How it is done: as §2, §3
[7] abbreviates: Saline (no virus) + 5-FC, no XRT.

With `Nc1nc(=O)[nH]cc1F` [5-FC, 5-fluorocytosine], the median survival time was determined as 17 days in [1] (5-FC) and 30 days in experiment [1] (5-FC plus radiation). In addition, the “survival SF50” value in [1] (FIG. 19, mock-infected, 5-FC) stood at 23 days. In [1] (preliminary study, mock-infected, 5-FC), the survival is on record as 13 days. Besides, the figures for the “Survival 20%” value in experiment [2] (Saline (no virus) + 5-FC + XRT) and in [2] (setting [7]) were 32 and 55, respectively. Further, the “Survival Median” value in experiment [2] (Saline (no virus) + 5-FC + XRT) was found to be 31; in experiment [2] (setting [7]), 28.

For the molecule `O=c1[nH]cc(F)c(=O)[nH]1` [5-FU, 5-fluorouracil], the IC20 – broadly, the point of the concentration-response curve where the effect stands at 20% – with BXPC-3 turned out to be 0.01 µg/mL (≈ 0.0769 µM); with ASPC-1 it was 0.04 µg/mL (≈ 0.308 µM); with U87MG [3], 0.37 µg/mL (≈ 2.84 µM); in the experiment on U251MG [4], 0.07 µg/mL (≈ 0.538 µM); in the experiment with LS174T, 0.11 µg/mL (≈ 0.846 µM); in the experiment with WiDr, 0.03 µg/mL (≈ 0.231 µM). The IC50 (as a rule, the midpoint of a concentration-inhibition curve) in the experiment with BXPC-3 was 0.04 µg/mL (≈ 0.308 µM); with ASPC-1, 1.58 µg/mL (≈ 12.1 µM); in the experiment on U87MG [3] it was 1.06 µg/mL (≈ 8.15 µM); in the experiment on U251MG [4] it was 0.38 µg/mL (≈ 2.92 µM); with LS174T, 0.3 µg/mL (≈ 2.31 µM); in the experiment on WiDr, 0.13 µg/mL (≈ 0.999 µM). The IC50 with D54MG amounted to 1.3 µg/mL (≈ 9.99 µM); in the experiment on U87MG [5] it was 1.8 µg/mL (≈ 13.8 µM); with U251MG [6], 0.4 µg/mL (≈ 3.08 µM). In addition, the IC80 (commonly the concentration needed for an effect of 80%) in the experiment on BXPC-3 amounted to 0.69 µg/mL (≈ 5.3 µM); in the experiment with ASPC-1 it was 39.4 µg/mL (≈ 303 µM); in the experiment on U87MG [3] it was 14 µg/mL (≈ 108 µM); with U251MG [4] it was 3.81 µg/mL (≈ 29.3 µM); in the experiment with LS174T it was 2.33 µg/mL (≈ 17.9 µM); with WiDr, 1.7 µg/mL (≈ 13.1 µM).
